For series [1], the target named is T1, 5-LOX (Homo sapiens, UniProt P09917).
T1 sequence (P09917 1-674): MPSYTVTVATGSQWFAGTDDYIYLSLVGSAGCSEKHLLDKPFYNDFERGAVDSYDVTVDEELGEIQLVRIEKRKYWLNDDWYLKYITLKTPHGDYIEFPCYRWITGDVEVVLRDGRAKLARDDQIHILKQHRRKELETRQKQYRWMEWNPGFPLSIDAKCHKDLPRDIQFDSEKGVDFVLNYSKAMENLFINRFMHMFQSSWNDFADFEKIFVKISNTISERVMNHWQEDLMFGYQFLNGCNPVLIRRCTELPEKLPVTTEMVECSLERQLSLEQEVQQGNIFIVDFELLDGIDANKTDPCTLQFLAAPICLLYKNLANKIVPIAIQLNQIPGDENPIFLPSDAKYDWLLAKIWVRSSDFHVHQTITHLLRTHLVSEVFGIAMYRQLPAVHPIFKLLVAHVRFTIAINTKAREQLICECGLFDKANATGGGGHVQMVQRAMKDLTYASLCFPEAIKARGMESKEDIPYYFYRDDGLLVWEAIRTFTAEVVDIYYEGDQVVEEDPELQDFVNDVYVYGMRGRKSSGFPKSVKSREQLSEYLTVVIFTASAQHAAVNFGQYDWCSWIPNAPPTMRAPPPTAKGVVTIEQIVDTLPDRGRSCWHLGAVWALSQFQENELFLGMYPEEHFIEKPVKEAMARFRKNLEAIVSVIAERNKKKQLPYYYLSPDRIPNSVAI
The series can be described thus: Cell-free 5-LOX activity (isolated human recombinant enzyme). The conditions noted are these: read-out: 5-LOX enzyme residual activity at 1 μM.
Procedure: Human recombinant 5-LOX was expressed in E. coli Bl21 (DE3) cells that were transformed with pT3–5LOX (wt 5-LOX), 5-LOX_3W (triple mutation of Trp102Ala/Trp13Ala/Trp75Ala), or 5-LOX_R (single mutant of the Arg101Asp plasmid) and purified on an ATP-agarose column (Econo-Pac, Bio-Rad, Hercules, CA) by affinity chromatography.[6],[75]
Purified 5-LOX (0.5 μg in PBS pH 7.4 containing 1 mM EDTA and 1 mM ATP) was preincubated with the vehicle (DMSO) or test compounds for 10 min and prewarmed at 37 °C.

The target in series [2] is T1, 5-LOX. The series can be described thus: Tryptophan fluorescence spectroscopy of 5-LOX. Format: binding. The arrangement: made in house; host or cells: E. coli Bl21 (DE3). As to conditions: 5-LOX titrated with compound, 0–10 μM. The procedure: Fluorescence spectroscopy measurements on human recombinant 5-LOX (Abcam, Cambridge, U.K.) were conducted in PBS pH 7.4 at 25 °C using an Edinburgh Instruments FLS920 Series fluorescence spectrophotometer (Livingston, U.K.). […] The concentration range of 5-LOX used through the experiments was 0.3–0.6 μM. 5-LOX was titrated with a stock solution of the test compounds in dimethylformamide to yield an experimental compound concentration in the range of 0–10 μM. The final dimethylformamide concentration was kept under 5%. After each addition, the sample was incubated for 10 min before measurement. The fluorescence emission intensity values were corrected for dilution and background noise. All conditions were measured independently and in duplicate.
The fluorescence spectral shifts were analyzed by monitoring the alterations in the spectral center of mass by estimating the intensity-averaged emission wavelength (⟨λ⟩), as calculated from the following equation, where Fi is the fluorescence emission intensity at wavenumber νi, and the summation was performed over the range of measured F values [drawing 1] 1

The subject of series [3] is monocytes. The series can be described thus: Monocyte membrane integrity (LDH release). As to conditions: higher concentrations (>1 μM). Format: cell-based, human. The procedure:
To measure mitochondrial dehydrogenase activity, 3-(4,5-dimethylthiazol-2-yl)-2,5-diphenyltetrazolium bromide (MTT) (20 μL, 5 mg/mL, Sigma-Aldrich) was added to PBMC. After 4 h in the darkness, the formed formazan product was solubilized (10% SDS in 20 mM HCl) and the absorbance was read at 570 nm using a Multiskan Spectrum microplate reader (Thermo Fisher Scientific).[81]
LDH release was measured in monocytes using a CytoTox 96 nonradioactive cytotoxicity assay (Promega, Madison, WI) according to the manufacturer’s instruction using Triton X-100 (0.8%) as the maximum LDH release control.
Background: Release of lactate dehydrogenase indicates damage to the cell membrane.

Series [4] in a line: Hepatic metabolism in human liver-on-chip. Format: in vitro ADME. The conditions noted are these: 1 μM, 48 h. The procedure:
LCMs, 27a, and 27a metabolites were extracted from PMNL, medium of the liver-on-chip, murine plasma, peritoneal exudate, or homogenized murine tissue as described.[6] In brief, PBS pH 7.4, methanol, chloroform, and saline (final ratio: 14:34:35:17) were successively added together with 13d (9 pmol) as the internal standard. The organic layer was evaporated, and the extracted LCMs were dissolved in methanol.
LCMs, 27a, and 27a metabolites were separated at a flow rate of 0.8 mL/min and a column temperature of 45 °C, with acetonitrile/H2O (10:90) as mobile phase A and acetonitrile as mobile phase B, both acidified with 0.07% formic acid. The linear gradient from A/B = 50:50 to 0:100 within 4.5 min was followed by isocratic elution with A/B = 0:100 for 1 min. MS parameters were adjusted according to Pein et al.[6] and as detailed in Table S3. Signal intensities were normalized to the internal standard 13d, and concentrations were calculated using external calibration curves as specified in Table S3. […]
The medium between the two membranes was renewed, and the vehicle (DMSO), 12a, or 27a were added. […] 12a, 27a, and their metabolites were extracted from the combined fractions and analyzed by UPLC-MS/MS.[6]

Series [5] has as its target T1, 5-LOX. Nature of the series: 5-LOX product formation in activated PMNL.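 Further: freshly isolated human PMNL in PBS pH 7.4 plus glucose, preincubated 10 min at 37 °C with compound, 5-LOX products (all-trans LTB4 isomers, 5-HETE) quantified by RP-HPLC.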 The conditions noted are these: PMNL, read-out: 5-LOX PMNL residual activity at 3 μM.
Procedure: These volunteers regularly donated blood (every 8–12 weeks) and were physically inspected by a clinician.
Erythrocytes were removed by dextran sedimentation and hypotonic lysis. PMNL were obtained from the cell pellet and platelets from the supernatant.
Freshly isolated PMNL (5 × 10^6) suspended in PBS pH 7.4 with 1 mg/mL glucose or freshly withdrawn human whole blood were preincubated with the test compounds for 10 min (or as indicated) at 37 °C. […] The reaction was stopped with an equal volume of methanol.
Series [6] can be described thus: Radical scavenging activity (DPPH). The conditions noted are these: 25 μM, positive control. The procedure: Compound 27a was incubated with 2,2-diphenyl-1-picrylhydrazyl (DPPH, Sigma-Aldrich; 50 mM) in ethanol for 30 min, and the absorbance was measured at 520 nm using a Multiskan Spectrum Microplate Reader (Thermo Fisher Scientific).[72] The positive control ascorbic acid (Sigma-Aldrich; 25 μM) scavenged DPPH radicals by 36 ± 11%.

In the case of `Cc1c(C)c2c(c(C)c1O)CC[C@@](C)(CCCC(C)CCCC(C)CCCC(C)C(=O)O)O2` (stereo partly drawn) [Compound 12a, α-T-13′-COOH], the remaining activity at 1 µM in series [1] stood at 0.8 ± 0.2%. For the same molecule, the “Shift of spectral center of mass of intrinsic Trp fluorescence of 5-LOX” value in series [2] is “substantially shifted to a shorter wavelength”. In addition, the “LDH release from monocytes at higher concentrations” value in series [3] was “not evident”. In addition, the Hepatic metabolism result in series [4] was “truncated to metabolites with varying side-chain lengths”. Also, the remaining activity at 3 µM in series [5] came out at 2 ± 0.8%.
As to `O=C1O[C@H]([C@@H](O)CO)C(O)=C1O` [ascorbic acid, reference compound], the “Scavenging of DPPH radicals” value in series [6] worked out at 36 ± 11%.

The record behind these values is article PMC8365602 (Journal of Medicinal Chemistry, 2021).
